Experimental findings from ChEMBL document CHEMBL4616677, “Preclinical Lead Optimization of a 1,2,4-Triazole Based Tankyrase Inhibitor” (J Med Chem, 2020) are described below.

SMILES strings stand for the structures. Active and inactive are the calls of the source. No cut-off for these calls is given here. Bounds are passed on as bounds.

Data set [1] in a line: Apparent permeability across apical to basolateral side in human Caco2 cells at 10 uM measured after 2 hrs by lucifer yellow based LC-MS/MS analysis. The conditions noted are these: Caco-2. It is filed as ADME, cell-based.
Data set [2] addresses Poly [ADP-ribose] polymerase 2 (Homo sapiens, UniProt Q9UGN5). Nature of the data set: Inhibition of ARTD2 (unknown origin) measured after 30 mins in presence of NAD+ by fluorescence assay.
The target of data set [3] is Poly [ADP-ribose] polymerase 1 (Homo sapiens, UniProt P09874). Nature of the data set: Inhibition of ARTD1 (unknown origin) measured after 30 mins in presence of NAD+ by fluorescence assay.
Data set [4] deals with Protein mono-ADP-ribosyltransferase PARP4 (Homo sapiens, UniProt Q9UKK3).
The target of data set [5] is T1, Protein mono-ADP-ribosyltransferase PARP3 (Homo sapiens, UniProt Q9Y6F1).
T1 sequence (Q9Y6F1 whole entry): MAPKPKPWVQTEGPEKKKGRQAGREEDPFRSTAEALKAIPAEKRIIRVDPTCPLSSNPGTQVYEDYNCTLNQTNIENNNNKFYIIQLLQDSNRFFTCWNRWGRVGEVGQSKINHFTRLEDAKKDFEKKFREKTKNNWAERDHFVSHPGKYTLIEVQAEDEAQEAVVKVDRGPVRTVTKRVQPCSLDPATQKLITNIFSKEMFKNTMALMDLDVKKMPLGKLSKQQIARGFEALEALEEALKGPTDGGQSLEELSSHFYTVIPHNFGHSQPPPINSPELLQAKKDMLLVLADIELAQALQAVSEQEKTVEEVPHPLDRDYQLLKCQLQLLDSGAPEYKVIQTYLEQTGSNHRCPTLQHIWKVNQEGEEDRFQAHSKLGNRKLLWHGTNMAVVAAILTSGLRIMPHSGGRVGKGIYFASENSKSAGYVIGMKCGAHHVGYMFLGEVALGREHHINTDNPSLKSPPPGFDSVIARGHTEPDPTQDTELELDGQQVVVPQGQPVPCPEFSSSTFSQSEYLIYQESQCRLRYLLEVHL
Nature of the data set: Inhibition of ARTD3 (unknown origin) measured after 4 hrs in presence of NAD+ by fluorescence assay.

Data set [6] is described as follows: Genotoxicity in Salmonella typhimurium TA100 in presence or absence of rat S9 fraction by mini-Ames test. The format is toxicity. To be noted: salmonella enterica subsp. enterica serovar typhimurium. In general terms: The Ames test uses bacterial strains that need an amino acid and regain growth without it when mutated back.
The next data set concerns RKO. Nature of the data set: Antiproliferative activity against APC wild-type human RKO cells at 10 uM measured after 5 days by MTS assay. The format is functional, cell-based.
Data set [7] can be described thus: Genotoxicity in Salmonella typhimurium TA98 in presence or absence of rat S9 fraction by mini-Ames test. The format is toxicity. To be noted: salmonella enterica subsp. enterica serovar typhimurium.
Data set [8] can be described thus: Clearance in ICR mouse at 5 mg/kg, po by LC-MS/MS analysis. It is filed as ADME, organism-based. The conditions noted are these: in vivo.

Sequence of Protein mono-ADP-ribosyltransferase PARP4 (Q9UKK3 whole entry): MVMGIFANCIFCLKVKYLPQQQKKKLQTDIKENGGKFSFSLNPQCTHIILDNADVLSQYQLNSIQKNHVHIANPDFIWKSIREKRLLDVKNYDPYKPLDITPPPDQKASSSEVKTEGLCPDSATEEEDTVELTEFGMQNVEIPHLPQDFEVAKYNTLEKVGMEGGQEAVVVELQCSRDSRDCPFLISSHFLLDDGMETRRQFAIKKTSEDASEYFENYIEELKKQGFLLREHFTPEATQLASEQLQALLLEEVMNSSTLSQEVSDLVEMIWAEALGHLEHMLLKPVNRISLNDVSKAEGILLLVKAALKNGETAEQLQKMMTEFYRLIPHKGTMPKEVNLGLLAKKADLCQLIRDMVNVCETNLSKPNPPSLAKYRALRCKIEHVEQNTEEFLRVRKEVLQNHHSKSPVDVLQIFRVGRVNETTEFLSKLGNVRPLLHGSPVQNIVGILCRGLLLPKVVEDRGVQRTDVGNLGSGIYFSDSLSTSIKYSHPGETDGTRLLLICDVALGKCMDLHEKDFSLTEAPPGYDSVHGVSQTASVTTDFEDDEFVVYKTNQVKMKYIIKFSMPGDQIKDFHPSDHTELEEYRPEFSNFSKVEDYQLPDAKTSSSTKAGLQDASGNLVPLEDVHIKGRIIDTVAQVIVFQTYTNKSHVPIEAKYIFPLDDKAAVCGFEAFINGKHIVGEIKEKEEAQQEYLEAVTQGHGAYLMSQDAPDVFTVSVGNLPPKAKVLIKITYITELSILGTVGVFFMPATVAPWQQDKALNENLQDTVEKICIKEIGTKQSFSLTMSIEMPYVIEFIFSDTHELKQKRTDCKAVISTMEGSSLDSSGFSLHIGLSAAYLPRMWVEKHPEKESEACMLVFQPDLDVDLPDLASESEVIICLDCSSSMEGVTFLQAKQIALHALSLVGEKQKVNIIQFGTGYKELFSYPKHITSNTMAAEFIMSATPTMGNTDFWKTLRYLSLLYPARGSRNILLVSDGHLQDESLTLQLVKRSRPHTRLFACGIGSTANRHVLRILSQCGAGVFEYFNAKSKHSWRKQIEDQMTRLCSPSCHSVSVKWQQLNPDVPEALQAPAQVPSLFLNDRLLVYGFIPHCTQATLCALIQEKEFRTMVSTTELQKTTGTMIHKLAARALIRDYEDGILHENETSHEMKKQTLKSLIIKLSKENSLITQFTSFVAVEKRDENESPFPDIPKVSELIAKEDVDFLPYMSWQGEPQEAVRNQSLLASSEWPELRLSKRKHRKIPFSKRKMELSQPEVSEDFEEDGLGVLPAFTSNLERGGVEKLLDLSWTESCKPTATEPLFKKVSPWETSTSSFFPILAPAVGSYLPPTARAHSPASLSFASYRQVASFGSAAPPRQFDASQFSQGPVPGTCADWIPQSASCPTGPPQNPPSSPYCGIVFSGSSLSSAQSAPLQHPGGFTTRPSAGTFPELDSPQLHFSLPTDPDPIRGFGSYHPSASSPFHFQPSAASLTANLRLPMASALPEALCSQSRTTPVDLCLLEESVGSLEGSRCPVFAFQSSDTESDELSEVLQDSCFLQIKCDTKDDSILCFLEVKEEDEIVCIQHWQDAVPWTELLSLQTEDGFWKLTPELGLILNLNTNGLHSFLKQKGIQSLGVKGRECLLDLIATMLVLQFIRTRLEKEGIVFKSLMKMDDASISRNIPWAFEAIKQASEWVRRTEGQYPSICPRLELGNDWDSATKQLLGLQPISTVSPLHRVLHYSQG
Sequence of Poly [ADP-ribose] polymerase 1 (P09874 whole entry): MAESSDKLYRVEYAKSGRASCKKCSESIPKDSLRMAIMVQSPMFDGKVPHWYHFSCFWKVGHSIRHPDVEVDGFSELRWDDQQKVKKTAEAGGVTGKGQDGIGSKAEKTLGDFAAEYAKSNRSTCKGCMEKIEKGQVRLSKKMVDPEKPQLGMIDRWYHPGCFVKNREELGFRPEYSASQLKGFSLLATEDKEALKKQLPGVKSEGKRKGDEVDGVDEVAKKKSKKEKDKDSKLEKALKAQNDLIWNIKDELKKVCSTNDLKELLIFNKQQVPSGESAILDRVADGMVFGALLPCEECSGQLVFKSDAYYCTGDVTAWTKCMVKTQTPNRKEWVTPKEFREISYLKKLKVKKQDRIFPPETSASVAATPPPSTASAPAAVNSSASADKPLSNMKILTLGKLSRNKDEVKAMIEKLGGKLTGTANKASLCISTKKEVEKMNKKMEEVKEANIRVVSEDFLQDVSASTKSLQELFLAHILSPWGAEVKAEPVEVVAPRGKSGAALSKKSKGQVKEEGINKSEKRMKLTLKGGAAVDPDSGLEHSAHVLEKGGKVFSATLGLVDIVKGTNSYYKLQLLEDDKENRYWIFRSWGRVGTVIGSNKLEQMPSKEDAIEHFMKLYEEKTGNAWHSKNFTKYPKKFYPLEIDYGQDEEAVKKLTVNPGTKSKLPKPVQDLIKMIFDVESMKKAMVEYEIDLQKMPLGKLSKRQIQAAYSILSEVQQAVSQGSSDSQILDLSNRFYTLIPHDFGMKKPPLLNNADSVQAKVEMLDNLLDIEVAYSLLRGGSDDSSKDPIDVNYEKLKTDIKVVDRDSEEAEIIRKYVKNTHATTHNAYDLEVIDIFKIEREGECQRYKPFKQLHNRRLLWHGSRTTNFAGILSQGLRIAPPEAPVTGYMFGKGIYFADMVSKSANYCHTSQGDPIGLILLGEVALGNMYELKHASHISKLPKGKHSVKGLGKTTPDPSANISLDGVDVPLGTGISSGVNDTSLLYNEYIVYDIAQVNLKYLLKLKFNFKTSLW
Sequence of Poly [ADP-ribose] polymerase 2 (Q9UGN5 whole entry): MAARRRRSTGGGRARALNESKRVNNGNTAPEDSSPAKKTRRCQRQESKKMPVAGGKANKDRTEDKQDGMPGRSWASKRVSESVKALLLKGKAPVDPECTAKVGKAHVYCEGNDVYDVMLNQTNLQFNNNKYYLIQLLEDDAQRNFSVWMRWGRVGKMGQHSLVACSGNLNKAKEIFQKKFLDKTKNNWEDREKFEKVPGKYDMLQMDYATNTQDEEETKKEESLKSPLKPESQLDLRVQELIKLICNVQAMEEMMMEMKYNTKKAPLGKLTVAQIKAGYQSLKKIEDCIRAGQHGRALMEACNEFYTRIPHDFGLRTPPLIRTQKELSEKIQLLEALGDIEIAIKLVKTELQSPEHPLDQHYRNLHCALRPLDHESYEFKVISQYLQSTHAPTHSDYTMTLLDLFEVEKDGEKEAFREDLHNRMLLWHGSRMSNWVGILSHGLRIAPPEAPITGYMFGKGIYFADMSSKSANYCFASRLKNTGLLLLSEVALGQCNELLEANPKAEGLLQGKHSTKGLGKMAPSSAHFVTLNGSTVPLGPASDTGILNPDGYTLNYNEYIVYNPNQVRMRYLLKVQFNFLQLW

Turning to `O=C(N[C@H]1C[C@H](c2nnc(-c3ccncn3)n2-c2ccccc2Cl)C1)c1ccnc2cccnc12`, the apical-to-basolateral permeability (Papp A→B) (as a rule, the apparent permeability from the apical to the basolateral side of a cell layer) at 2 h, 10 µM in [1] worked out at 3.1 ×10⁻⁶ cm/s.
For the compound `N#Cc1ccc2c(c1)[nH]c(=O)n2[C@H]1C[C@H](c2nnc(-c3ccncn3)n2-c2ccccc2Cl)C1`, the IC50 in [2], in data set [3], in data set [4] and in data set [5] was over 10 µM in each case.
With `CCOc1ccc(-c2nnc([C@H]3C[C@H](NC(=O)c4ccccn4)C3)n2-c2ccccc2F)nc1`, the Activity entry in data set [6] and in data set [7] was “Non-Toxic” throughout. Also, the outcome in the data set with RKO was Active. Moreover, in [8], the CL/F (as a rule, clearance divided by bioavailability, as obtained after extravascular dosing) was 34.8 mL/min/kg. Further, the Papp A→B at 2 h, 10 µM in data set [1] was in the range of 39.5 to 40 ×10⁻⁶ cm/s. The half-inhibitory concentration (IC50) (in general, the point on the concentration scale where inhibition reaches its midpoint) in data set [5] is over 10 µM.
As for `O=C(N[C@H]1C[C@H](c2nnc(-c3ccccn3)n2-c2ccccc2F)C1)c1ccnc2cc(F)cnc12`, the apparent clearance (CL/F) in data set [8] is 16.5 mL/min/kg.
Same read-out and setting: the result for `CS(=O)(=O)c1ccc(-c2nnc([C@H]3C[C@H](NC(=O)c4cccc5cccnc45)C3)n2-c2ccccc2F)nc1` reads 28.2 mL/min/kg.
